In patent US8835647B2, “2-((R)-2-methylpyrrolidin-2-yl)-1H-benzimidazole-4-carboxamide crystalline form 1” (AbbVie Inc., priority 2007, dated 2014):

Columns and labels:
[1] = test system: tumor; conditions: tumor bearing animals; cited from earlier work
[2] = at 25° C.

SMILES: C[C@]1(c2nc3c(C(N)=O)cccc3[nH]2)CCCN1 [ABT-888, 2-((R)-2-methylpyrrolidin-2-yl)-1H-benzimidazole-4-carboxamide]
- tumor growth [1]: limit tumor growth

SMILES: C[C@]1(c2nc3c(C(N)=O)cccc3[nH]2)CCCN1 [ABT-888 Crystalline Form 1, 2-((R)-2-Methylpyrrolidin-2-yl)-1H-benzimidazole-4-carboxamide Crystalline Form 1]
- thermodynamic stability of crystalline form [2]: most thermodynamically stable crystalline form of ABT-888
